Test results published in US7674810B2, “1,1-dioxo-1H-1Λ6-benzo[d]isothiazol-3-yl)-4-hydroxy-1,5-dihydro-pyrrol-2-one inhibitors of HCV polymerase” (Roche Palo Alto LLC, priority 2006, dated 2010).

Legend:
[1] = molecular target: T1, HCV NS5B570n-BK (Hepatitis C virus genotype 1b, UniProt P26663); assay: HCV NS5B RNA Polymerase Activity; assay type: biochemical, HCV BK strain; details: poly A:oligo U16, tritiated UTP, 2 h at 30° C.
T1 construct: histidine tag (N); made in house; host or cells: E. coli strain M15
T1 sequence (P26663 2421-2999): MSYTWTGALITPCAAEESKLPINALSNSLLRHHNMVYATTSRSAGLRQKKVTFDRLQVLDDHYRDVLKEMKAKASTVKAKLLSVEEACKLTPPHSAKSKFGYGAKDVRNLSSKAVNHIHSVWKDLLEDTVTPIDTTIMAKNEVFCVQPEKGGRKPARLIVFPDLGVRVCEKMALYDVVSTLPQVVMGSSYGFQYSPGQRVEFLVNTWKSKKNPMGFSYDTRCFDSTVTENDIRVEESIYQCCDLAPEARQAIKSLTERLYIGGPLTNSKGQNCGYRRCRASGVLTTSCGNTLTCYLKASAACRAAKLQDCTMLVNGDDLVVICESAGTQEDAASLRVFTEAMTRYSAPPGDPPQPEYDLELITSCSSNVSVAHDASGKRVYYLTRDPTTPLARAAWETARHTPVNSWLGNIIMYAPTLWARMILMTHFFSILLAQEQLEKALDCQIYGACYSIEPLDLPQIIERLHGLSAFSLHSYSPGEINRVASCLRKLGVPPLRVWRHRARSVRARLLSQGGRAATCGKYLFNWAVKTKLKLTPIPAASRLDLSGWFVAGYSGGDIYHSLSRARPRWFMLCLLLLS
Protocol: The enzymatic activity of HCV NS5B570n-BK is measured as incorporation of radiolabeled nucleotide monophosphates into acid insoluble RNA products. Unincorporated radiolabel substrate is removed by filtration and scintillant is added to the washed and dried filter plate containing radiolabeled RNA product. The light emitted by the scintillant is proportional to the amount of RNA product generated by NS5B570n-BK at the endpoint of the reaction.
The N-terminally histidine tagged HCV polymerase, derived from HCV BK strain, genotype 1b (NS5B570n-BK) contains a 21 amino acid deletion at the C-terminus relative to the full-length HCV polymerase and is purified from E. coli strain M15. The construct containing the coding sequence of HCV BK strain amino acid residues 2421-2999 (GenBank accession number M58335) downstream of a Taq promoter expression cassette was inserted into plasmid constructs. The plasmid constructs are transformed in E. coli and colonies are inoculated and grown overnight in 10 L of Terrific broth (Tartoff and Hobbs) supplemented with 100 μg/mL ampicillin at 37° C. Protein expression is induced by addition of 1 mM isopropyl-β-D -thiogalactopyranoside (IPTG), when optical densities reaches between 1.5 and 3.5 OD600 and the culture is then incubated for 16- to 18 h at 22° C. NS5B570n -BK is purified to homogeneity using a three step protocol including subsequent column chromatography on Ni-NTA, SP-Sepharose HP and Superdex 75 resins.
Each 50 μl enzymatic reaction contains 8:4 μg/mL poly A:oligo U16 (template:primer), 200 nM NS5B570n-BK enzyme, 2.1 μCi of tritiated UTP (Perkin Elmer catalog no. TRK -412; specific activity: 30 to 60 Ci/mmol; stock solution concentration from 7.5×10^−5 M to 20.6×10^−6 M), 1 μM ATP, CTP, and GTP, 40 mM Tris-HCl pH 8.0, 2 to 40 mM NaCl, 4 mM DTT (dithiothreitol), 4 mM MgCl2, and 5 μl of compound serial diluted in DMSO. Reaction mixtures are assembled in MADVN0B 96-well filter plates (Millipore Co.) and incubated for 2 h at 30° C. Reactions are stopped by addition of 10% (v/v) trichloroacetic acid and incubated for 40 min at 4° C. Reactions are filtered, washed with 6 reaction volumes of 10% (v/v) trichloroacetic acetic acid, 2 reaction volumes of 70% (v/v) ethanol, air dried, and 25 μl of scintillant (Microscint 20, Perkin-Elmer) is added to each reaction well.
The amount of light emitted from the scintillant is converted to counts per minute (CPM) on a Topcount® plate reader (Perkin-Elmer, Energy Range: Low, Efficiency Mode: Normal, Count Time: 1 min, Background Subtract: none, Cross talk reduction: Off).
Data is analyzed with GraphPad® Prism® and/or Microsoft® Excel®. The reaction in the absence of enzyme is used to determine the background signal, which is subtracted from the enzymatic reactions. Positive control reactions are performed in the absence of compound, from which the background corrected activity is set as 100% polymerase activity. All data is expressed as a percentage of the positive control. The compound concentration at which the enzyme-catalyzed rate of RNA synthesis is reduced by 50% (IC50) is calculated by fitting equation (i) to
[formula] the data, where “Y” corresponds to the relative enzyme activity (in %), “% Min” is the residual relative enzymatic activity at saturating compound concentration, “% Max” is the maximal relative enzymatic activity compared to positive control, X corresponds to the compound concentration, and “S” is the Hill coefficient (or slope). […]

[2] = system: Renilla luciferase HCV replicon cells (2209-23); assay: Renilla luciferase Assay (HCV replicon); assay type: cell-based, HCV; human hepatoma Huh7 cells; details: 72 h; replicon cell line 2209-23, three days incubation; read-out: R. luciferase Activity IC50
[3] = system: HCV; details: cited from earlier work

| Compound | IC50 [1] | IC50 [2] | melting point | effect on serum levels of HCV-RNA ([3]; monotherapy / sole treatment) | patients in whom serum amino transferase levels are reduced to normal ([3]; monotherapy) |
| --- | --- | --- | --- | --- | --- |
| CC(C)(C)C1C(O)=C(C2=NS(=O)(=O)c3c(O)cccc32)C(=O)N1Cc1ccc(F)cc1 (centres unmarked) [II-6, 5-tert-Butyl-1-(4-fluoro-benzyl)-4-hydroxy-3-(7-hydroxy-1,1-dioxo-1H-1λ^6-benzo[d]isothiazol-3-yl)-1,5-dihydro-pyrrol-2-one] | 52 nM | 3260 nM | > 250 °C |  |  |
| Cc1cc(CN2C(=O)C(C3=NS(=O)(=O)c4ccccc43)=C(O)[C@@H]2C(C)(C)C)ccc1F [II-15, (S)-5-tert-Butyl-3-(1,1-dioxo-1H-1λ^6-benzo[d]isothiazol-3-yl)-1-(4-fluoro-3-methyl-benzyl)-4-hydroxy-1,5-dihydro-pyrrol-2-one] | 138 nM | 125 nM | 105 to 111 °C |  |  |
| CC(C)(C)[C@H]1C(O)=C(C2=NS(=O)(=O)c3c(CNS(C)(=O)=O)cccc32)C(=O)N1Cc1ccc(F)cc1 [II-23, N-{3-[(S)-5-tert-Butyl-1-(4-fluoro-benzyl)-4-hydroxy-2-oxo-2,5-dihydro-1H-pyrrol-3-yl]-1,1-dioxo-1H-1λ^6-benzo[d]isothiazol-7-ylmethyl}-methanesulfonamide] | 76 nM | 56 nM | 105 to 128 °C |  |  |
| CC(C)(C)[C@H]1C(O)=C(C2=NS(=O)(=O)c3ccccc32)C(=O)N1Cc1ccc(F)c(Cl)c1 [II-31, (S)-5-tert-Butyl-1-(3-chloro-4-fluoro-benzyl)-3-(1,1-dioxo-1H-1λ^6-benzo[d]isothiazol-3-yl)-4-hydroxy-1,5-dihydro-pyrrol-2-one] | 208 nM | 288 nM | 81 to 96 °C |  |  |
| CN(Cc1cccc2c1S(=O)(=O)N=C2C1=C(O)C(C(C)(C)C)N(Cc2ccc(F)cc2)C1=O)S(C)(=O)=O (centres unmarked) [II-35, N-{3-[5-tert-Butyl-1-(4-fluoro-benzyl)-4-hydroxy-2-oxo-2,5-dihydro-1H-pyrrol-3-yl]-1,1-dioxo-1H-1λ^6-benzo[d]isothiazol-7-ylmethyl}-N-methyl-methanesulfonamide] | 154 nM | 108 nM | 115 to 125 °C |  |  |
| NC(=O)c1ncn([C@@H]2O[C@H](CO)[C@@H](O)[C@H]2O)n1 [ribavirin, 1-((2R,3R,4S,5R)-3,4-dihydroxy-5-hydroxymethyl-tetrahydro-furan-2-yl)-1H-[1,2,4]triazole-3-carboxylic acid amide] |  |  |  | does not lower serum levels of HCV-RNA | 40% |
